Measurements from ChEMBL document CHEMBL2029277, “Discovery of XL413, a potent and selective CDC7 inhibitor” (Bioorg Med Chem Lett, 2012).

Legend:
Caco-2 [1] = assay: Induction of apoptosis in human Caco2 cells assessed as increase in caspase 3/7 activity; format: functional, cell-based
Caco-2 [2] = assay: Antiproliferative activity against human Caco2 cells assessed as inhibition of anchorage-independent growth in soft agar; format: functional, cell-based
[3] = Cmax in rat at 3 mg/kg, po; format: ADME, organism-based; set-up: dose 3 mg/kg, route oral; details: in vivo
[4] = AUC in rat at 3 mg/kg, po; format: ADME, organism-based; set-up: dose 3 mg/kg, route oral; details: plasma
[5] = Clearance in rat; format: ADME, organism-based; details: in vivo
[6] = Volume of distribution at steady state in rat; format: ADME, organism-based; details: in vivo, read-out: Vdss
[7] = Half life in rat; format: ADME, organism-based; details: in vivo
[8] = Oral bioavailability in rat at 3 mg/kg; format: ADME, organism-based; details: in vivo
Mus musculus [9] = assay: Inhibition of CDC7-mediated MCM2 phosphorylation at Ser40/41 in human Caco2 cells xenografted in athymic nude mouse at 3 mg/kg, po after 4 hrs by Western blot analysis; format: functional; details: Caco-2, 4 h
Mus musculus [10] = assay: Inhibition of CDC7-mediated MCM2 phosphorylation at Ser40/41 in human Caco2 cells xenografted in po dosed athymic nude mouse by after 4 hrs Western blot analysis; format: functional; details: Caco-2, po
[11] = Plasma concentration in athymic nude mouse bearing human Caco2 cells at 3 mg/kg, po measured after 4 hrs; format: ADME, organism-based, Caco-2; set-up: dose 3 mg/kg, route oral
[12] = Plasma concentration in athymic nude mouse bearing human Caco2 cells at 10 mg/kg, po measured after 4 hrs; format: ADME, organism-based, Caco-2; set-up: dose 10 mg/kg, route oral
[13] = Plasma concentration in athymic nude mouse bearing human Caco2 cells at 30 mg/kg, po measured after 4 hrs; format: ADME, organism-based, Caco-2; set-up: dose 30 mg/kg, route oral
[14] = Plasma concentration in athymic nude mouse bearing human Caco2 cells at 100 mg/kg, po measured after 4 hrs; format: ADME, organism-based, Caco-2; set-up: dose 100 mg/kg, route oral
[15] = Drug uptake in tumor of Caco2 cells xenografted athymic nude mouse at 3 mg/kg, po measured after 4 hrs; format: ADME, organism-based, Neoplasm, Caco-2; set-up: dose 3 mg/kg, route oral; details: read-out: Drug uptake
[16] = Drug uptake in tumor of Caco2 cells xenografted athymic nude mouse at 10 mg/kg, po measured after 4 hrs; format: ADME, organism-based, Neoplasm, Caco-2; set-up: dose 10 mg/kg, route oral; details: read-out: Drug uptake
[17] = Drug uptake in tumor of Caco2 cells xenografted athymic nude mouse at 30 mg/kg, po measured after 4 hrs; format: ADME, organism-based, Neoplasm, Caco-2; set-up: dose 30 mg/kg, route oral; details: read-out: Drug uptake
[18] = Drug uptake in tumor of Caco2 cells xenografted athymic nude mouse at 100 mg/kg, po measured after 4 hrs; format: ADME, organism-based, Neoplasm, Caco-2; set-up: dose 100 mg/kg, route oral; details: read-out: Drug uptake
Caco-2 [19] = assay: Antitumor activity against human Caco2 cells xenografted in athymic nude mouse assessed as tumor growth inhibition at 3 mg/kg, po QD administered for 14 days; format: functional; details: Caco-2, 336 h, read-out: GI
Caco-2 [20] = assay: Antitumor activity against human Caco2 cells xenografted in athymic nude mouse assessed as tumor growth inhibition at 10 mg/kg, po QD administered for 14 days; format: functional; details: Caco-2, 336 h, read-out: GI
Caco-2 [21] = assay: Antitumor activity against human Caco2 cells xenografted in athymic nude mouse assessed as tumor growth inhibition at 30 mg/kg, po QD administered for 14 days; format: functional; details: Caco-2, 336 h, read-out: GI
Caco-2 [22] = assay: Antitumor activity against human Caco2 cells xenografted in athymic nude mouse assessed as tumor growth inhibition at 100 mg/kg, po QD administered for 14 days; format: functional; details: Caco-2, 336 h, read-out: GI
Caco-2 [23] = assay: Antitumor activity against human Caco2 cells xenografted in athymic nude mouse assessed as tumor growth inhibition at 30 mg/kg, po BID administered for 14 days; format: functional; details: Caco-2, 336 h, read-out: GI
Caco-2 [24] = assay: Antitumor activity against human Caco2 cells xenografted in athymic nude mouse assessed as tumor growth inhibition at 100 mg/kg, po Q2D administered for 14 days; format: functional; details: Caco-2, 336 h, read-out: GI
Caco-2 [25] = assay: Antitumor activity against human Caco2 cells xenografted in athymic nude mouse assessed as tumor regression at 100 mg/kg, po QD administered for 14 days; format: functional
Caco-2 [26] = assay: Antitumor activity against human Caco2 cells xenografted in athymic nude mouse assessed as tumor regression at 30 mg/kg, po BID administered for 14 days; format: functional
Caco-2 [27] = assay: Antitumor activity against human Caco2 cells xenografted in athymic nude mouse assessed as tumor regression at 100 mg/kg, po Q2D administered for 14 days; format: functional
Mus musculus [28] = assay: Toxicity in athymic nude mouse bearing human Caco2 cells assessed as decrease in body weight at 3 mg/kg, po QD administered for 14 days; format: organism-based, Caco-2; set-up: dose 3 mg/kg, route oral; scale not given: the % may be the effect or the level left; details: in vivo, 336 h
Mus musculus [29] = assay: Toxicity in athymic nude mouse bearing human Caco2 cells assessed as decrease in body weight at 10 mg/kg, po QD administered for 14 days; format: organism-based, Caco-2; set-up: dose 10 mg/kg, route oral; scale not given: the % may be the effect or the level left; details: in vivo, 336 h
Mus musculus [30] = assay: Toxicity in athymic nude mouse bearing human Caco2 cells assessed as decrease in body weight at 30 mg/kg, po QD administered for 14 days; format: organism-based, Caco-2; set-up: dose 30 mg/kg, route oral; scale not given: the % may be the effect or the level left; details: in vivo, 336 h
Mus musculus [31] = assay: Toxicity in athymic nude mouse bearing human Caco2 cells assessed as decrease in body weight at 100 mg/kg, po QD administered for 14 days; format: organism-based, Caco-2; set-up: dose 100 mg/kg, route oral; scale not given: the % may be the effect or the level left; details: in vivo, 336 h
Mus musculus [32] = assay: Toxicity in athymic nude mouse bearing human Caco2 cells assessed as decrease in body weight at 30 mg/kg, po BID administered for 14 days; format: organism-based, Caco-2; set-up: dose 30 mg/kg, route oral; scale not given: the % may be the effect or the level left; details: in vivo, 336 h
Mus musculus [33] = assay: Toxicity in athymic nude mouse bearing human Caco2 cells assessed as decrease in body weight at 100 mg/kg, po Q2D administered for 14 days; format: organism-based, Caco-2; set-up: dose 100 mg/kg, route oral; scale not given: the % may be the effect or the level left; details: in vivo, 336 h
Cytochrome P450 3A4 = Cytochrome P450 3A4 (Homo sapiens, UniProt P08684); assay: Inhibition of CYP3A4; format: ADME
Cytochrome P450 2C9 = Cytochrome P450 2C9 (Homo sapiens, UniProt P11712); assay: Inhibition of CYP2C9; format: ADME
Cytochrome P450 2D6 = Cytochrome P450 2D6 (Homo sapiens, UniProt P10635); assay: Inhibition of CYP2D6; format: ADME
Cytochrome P450 2C19 = Cytochrome P450 2C19 (Homo sapiens, UniProt P33261); assay: Inhibition of CYP2C19; format: ADME
Cytochrome P450 1A2 = target: T1, Cytochrome P450 1A2 (Homo sapiens, UniProt P05177); assay: Inhibition of CYP1A2; format: ADME
T1 sequence (P05177 whole entry): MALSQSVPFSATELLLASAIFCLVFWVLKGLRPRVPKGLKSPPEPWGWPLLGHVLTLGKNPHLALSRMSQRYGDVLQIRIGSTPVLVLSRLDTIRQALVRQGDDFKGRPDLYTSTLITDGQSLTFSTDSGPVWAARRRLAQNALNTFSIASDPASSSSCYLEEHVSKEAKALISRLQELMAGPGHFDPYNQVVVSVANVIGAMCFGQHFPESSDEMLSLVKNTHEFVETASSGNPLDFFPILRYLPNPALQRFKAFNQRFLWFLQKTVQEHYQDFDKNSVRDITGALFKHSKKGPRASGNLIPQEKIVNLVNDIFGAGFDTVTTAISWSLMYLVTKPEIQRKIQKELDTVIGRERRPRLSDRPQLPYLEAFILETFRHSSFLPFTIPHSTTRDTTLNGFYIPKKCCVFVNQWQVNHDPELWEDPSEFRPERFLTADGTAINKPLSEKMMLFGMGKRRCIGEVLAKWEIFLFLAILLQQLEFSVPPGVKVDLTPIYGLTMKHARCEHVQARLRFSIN

[34] = target: T2, Cell division cycle 7-related protein kinase (Homo sapiens, UniProt O00311); assay: Inhibition of N-terminus Myc-tagged human CDC7 expressed in Escherichia coli by chemiluminescence assay in presence of ATP
[35] = target: Casein kinase II alpha/beta (Homo sapiens, UniProt P68400); assay: Inhibition of human tertrameric CK2alphabeta holoenzyme using casein as substrate after 1 to 2 hrs by chemiluminescence assay in presence of 2 uM ATP; format: protein-complex assay
[36] = target: Serine/threonine-protein kinase pim-1 (Homo sapiens, UniProt P11309); assay: Inhibition of N-terminus His-tagged human PIM1 expressed in Escherichia coli using AKRRRLSA as substrate after 1 to 2 hrs by chemiluminescence assay
[37] = target: T2, Cell division cycle 7-related protein kinase; assay: Inhibition of CDC7 in human MDA-MB-231T cells assessed as inhibition of MCM2 phosphorylation at Ser53 after 4 hrs; format: cell-based
[38] = Plasma concentration in mouse at 100 mg/kg, po measured after 1 hr; format: ADME, organism-based; set-up: dose 100 mg/kg, route oral
[39] = Plasma concentration in mouse at 100 mg/kg, po measured after 4 hrs; format: ADME, organism-based; set-up: dose 100 mg/kg, route oral
[40] = target: T2, Cell division cycle 7-related protein kinase; assay: Inhibition of CDC7 in human Caco2 cells assessed as inhibition of MCM2 phosphorylation at Ser53 after 4 hrs; format: cell-based, Caco-2
Caco-2 [41] = assay: Antiproliferative activity against human Caco2 cells after 3 days by BrdU incorporation assay; format: functional, cell-based; details: Caco-2, 72 h
Caco-2 [42] = assay: Antiproliferative activity against human Caco2 cells assessed as decrease in cell viability after 3 days by Cell Titer-Glo assay; format: functional, cell-based; details: Caco-2, 72 h

T2 sequence (O00311 whole entry): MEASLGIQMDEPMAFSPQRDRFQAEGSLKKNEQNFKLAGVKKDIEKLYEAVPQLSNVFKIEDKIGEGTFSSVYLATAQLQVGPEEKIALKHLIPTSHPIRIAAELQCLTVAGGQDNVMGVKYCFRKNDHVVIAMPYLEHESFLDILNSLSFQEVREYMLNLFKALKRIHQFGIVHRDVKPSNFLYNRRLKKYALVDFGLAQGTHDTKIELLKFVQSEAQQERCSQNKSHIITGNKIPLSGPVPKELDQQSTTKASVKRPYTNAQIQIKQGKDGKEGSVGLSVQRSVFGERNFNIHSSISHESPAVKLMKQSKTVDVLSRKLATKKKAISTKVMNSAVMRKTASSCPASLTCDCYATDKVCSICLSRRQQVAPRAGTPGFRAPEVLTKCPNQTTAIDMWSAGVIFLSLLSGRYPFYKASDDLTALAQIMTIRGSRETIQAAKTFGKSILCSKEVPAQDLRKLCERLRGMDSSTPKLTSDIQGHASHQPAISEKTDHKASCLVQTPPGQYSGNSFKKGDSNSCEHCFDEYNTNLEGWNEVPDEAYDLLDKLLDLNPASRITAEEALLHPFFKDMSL
Casein kinase II alpha/beta, sequence (P67870 whole entry): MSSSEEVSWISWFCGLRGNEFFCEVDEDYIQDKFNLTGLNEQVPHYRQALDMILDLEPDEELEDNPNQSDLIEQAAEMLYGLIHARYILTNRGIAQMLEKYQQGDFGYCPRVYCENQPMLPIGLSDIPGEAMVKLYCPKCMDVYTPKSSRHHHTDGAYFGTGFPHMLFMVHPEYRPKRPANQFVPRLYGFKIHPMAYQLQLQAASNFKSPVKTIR
Casein kinase II alpha/beta, sequence (P68400 whole entry): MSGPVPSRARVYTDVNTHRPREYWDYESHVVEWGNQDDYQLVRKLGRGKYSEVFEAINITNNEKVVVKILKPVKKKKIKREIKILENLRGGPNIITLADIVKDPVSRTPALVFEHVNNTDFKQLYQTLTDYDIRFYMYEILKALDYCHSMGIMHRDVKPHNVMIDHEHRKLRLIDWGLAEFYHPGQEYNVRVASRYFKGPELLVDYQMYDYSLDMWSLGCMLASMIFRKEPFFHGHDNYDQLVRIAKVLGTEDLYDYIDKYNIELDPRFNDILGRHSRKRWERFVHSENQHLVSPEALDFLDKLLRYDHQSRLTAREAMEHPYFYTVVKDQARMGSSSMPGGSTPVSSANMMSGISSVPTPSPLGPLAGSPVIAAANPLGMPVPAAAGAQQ
Cytochrome P450 3A4, sequence (P08684 whole entry): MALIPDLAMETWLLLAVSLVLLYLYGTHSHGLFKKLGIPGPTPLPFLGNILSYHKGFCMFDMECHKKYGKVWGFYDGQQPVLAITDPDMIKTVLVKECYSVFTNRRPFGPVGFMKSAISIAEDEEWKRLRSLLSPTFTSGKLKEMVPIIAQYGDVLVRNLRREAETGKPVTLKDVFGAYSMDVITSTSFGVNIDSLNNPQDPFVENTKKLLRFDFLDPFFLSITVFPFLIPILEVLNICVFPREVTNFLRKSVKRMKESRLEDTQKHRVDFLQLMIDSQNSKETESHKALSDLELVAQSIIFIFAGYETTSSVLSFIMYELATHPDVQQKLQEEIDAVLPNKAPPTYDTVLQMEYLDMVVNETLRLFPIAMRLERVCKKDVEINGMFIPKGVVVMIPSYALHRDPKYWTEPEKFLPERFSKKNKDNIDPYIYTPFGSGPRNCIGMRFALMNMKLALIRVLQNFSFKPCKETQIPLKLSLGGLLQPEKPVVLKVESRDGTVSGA
Cytochrome P450 2D6, sequence (P10635 whole entry): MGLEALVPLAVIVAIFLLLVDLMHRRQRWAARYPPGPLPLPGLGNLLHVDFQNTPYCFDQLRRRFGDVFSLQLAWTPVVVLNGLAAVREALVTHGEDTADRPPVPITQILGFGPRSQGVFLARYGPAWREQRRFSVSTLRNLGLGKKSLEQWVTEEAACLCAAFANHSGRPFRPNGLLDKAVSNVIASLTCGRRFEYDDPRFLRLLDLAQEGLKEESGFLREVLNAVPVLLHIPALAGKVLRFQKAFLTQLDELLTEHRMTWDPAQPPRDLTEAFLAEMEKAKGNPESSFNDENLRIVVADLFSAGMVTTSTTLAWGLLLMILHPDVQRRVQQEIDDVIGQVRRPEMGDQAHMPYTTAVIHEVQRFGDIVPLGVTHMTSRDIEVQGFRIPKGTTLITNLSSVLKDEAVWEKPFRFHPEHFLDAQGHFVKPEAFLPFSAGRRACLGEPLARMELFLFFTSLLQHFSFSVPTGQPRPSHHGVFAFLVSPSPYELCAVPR
Cytochrome P450 2C9, sequence (P11712 whole entry): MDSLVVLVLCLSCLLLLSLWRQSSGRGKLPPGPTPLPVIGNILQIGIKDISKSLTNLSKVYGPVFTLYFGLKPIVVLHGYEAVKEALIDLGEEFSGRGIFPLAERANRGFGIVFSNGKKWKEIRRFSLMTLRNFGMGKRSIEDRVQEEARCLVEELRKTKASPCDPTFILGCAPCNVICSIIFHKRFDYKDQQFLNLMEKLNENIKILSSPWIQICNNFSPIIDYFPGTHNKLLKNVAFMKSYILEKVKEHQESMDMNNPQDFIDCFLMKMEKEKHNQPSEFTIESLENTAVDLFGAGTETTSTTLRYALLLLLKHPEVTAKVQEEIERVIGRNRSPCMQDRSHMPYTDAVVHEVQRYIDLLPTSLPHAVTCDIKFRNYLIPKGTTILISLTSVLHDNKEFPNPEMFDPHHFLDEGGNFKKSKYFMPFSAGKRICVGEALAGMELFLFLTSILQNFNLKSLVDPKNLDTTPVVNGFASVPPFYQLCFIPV
Serine/threonine-protein kinase pim-1, sequence (P11309 whole entry): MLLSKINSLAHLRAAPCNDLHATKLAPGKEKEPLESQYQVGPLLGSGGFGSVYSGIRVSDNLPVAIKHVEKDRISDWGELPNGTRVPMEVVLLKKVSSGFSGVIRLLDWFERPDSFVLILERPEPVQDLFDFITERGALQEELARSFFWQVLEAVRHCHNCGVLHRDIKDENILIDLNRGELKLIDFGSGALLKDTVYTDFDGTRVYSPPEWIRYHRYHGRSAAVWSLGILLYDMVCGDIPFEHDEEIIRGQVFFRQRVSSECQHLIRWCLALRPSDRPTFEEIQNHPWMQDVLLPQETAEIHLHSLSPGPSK
Cytochrome P450 2C19, sequence (P33261 whole entry): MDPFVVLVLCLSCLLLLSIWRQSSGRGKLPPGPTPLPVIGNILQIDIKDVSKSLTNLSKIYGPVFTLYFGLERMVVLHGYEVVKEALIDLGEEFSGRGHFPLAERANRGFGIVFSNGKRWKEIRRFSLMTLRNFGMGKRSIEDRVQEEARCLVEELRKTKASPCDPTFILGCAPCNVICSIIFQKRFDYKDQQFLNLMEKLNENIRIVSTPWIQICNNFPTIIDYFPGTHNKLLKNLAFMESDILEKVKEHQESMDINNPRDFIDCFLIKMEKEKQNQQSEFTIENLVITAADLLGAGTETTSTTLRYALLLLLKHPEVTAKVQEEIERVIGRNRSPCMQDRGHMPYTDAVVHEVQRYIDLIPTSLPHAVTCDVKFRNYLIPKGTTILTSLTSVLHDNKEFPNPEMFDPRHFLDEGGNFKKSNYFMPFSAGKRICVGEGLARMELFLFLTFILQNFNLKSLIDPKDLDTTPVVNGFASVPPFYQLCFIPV

Work on `O=c1[nH]c([C@@H]2CCCN2)nc2c1oc1ccc(Cl)cc12` yielded an EC50 (Caco-2 [1]) of 2.29 µM, an IC50 (Caco-2 [2]) of 0.715 µM and a Cmax [3] of 8.61 µM. For the same molecule, the AUC [4] was 75 µM·h, the clearance [5] was 0.117 L/h/kg and the Vd [6] was 0.55 L/kg. For the same molecule, the half-life [7] was 2.32 h, the bioavailability [8] was 95% and the inhibition in vivo at 3 mg/kg (Mus musculus [9]) was 70%. It also gave an ED50 (Mus musculus [10]) of under 3 mg/kg, a concentration at 4 h [11] of 11 µM and a concentration at 4 h [12] of 40.1 µM. For the same molecule, the concentration at 4 h [13] was 82.2 µM, the concentration at 4 h [14] was 186 µM and the concentration at 4 h [15] was 3.2 µM. For the same molecule, the concentration at 4 h [16] was 13.1 µM, the concentration at 4 h [17] was 32.1 µM and the concentration at 4 h [18] was 71.4 µM. For the same molecule, the inhibition in vivo at 3 mg/kg (Caco-2 [19]) was 8.7%, the inhibition in vivo at 10 mg/kg (Caco-2 [20]) was 36% and the inhibition in vivo at 30 mg/kg (Caco-2 [21]) was 83%. For the same molecule, the inhibition in vivo at 100 mg/kg (Caco-2 [22]) was over 100%, the inhibition in vivo at 30 mg/kg (Caco-2 [23]) was over 100% and the inhibition in vivo at 100 mg/kg (Caco-2 [24]) was over 100%. For the same molecule, the Activity (Caco-2 [25]) was 70%, the Activity (Caco-2 [26]) was 32% and the Activity (Caco-2 [27]) was 21%. For the same molecule, the Activity (Mus musculus [28]) was 0.5%, the Activity (Mus musculus [29]) was 3.4% and the Activity (Mus musculus [30]) was 8.3%. For the same molecule, the Activity (Mus musculus [31]) was 4.7%, the Activity (Mus musculus [32]) was 6.4% and the Activity (Mus musculus [33]) was 4.5%. It also gave an IC50 (Cytochrome P450 3A4) of over 50 µM, an IC50 (Cytochrome P450 2C9) of over 50 µM and an IC50 (Cytochrome P450 2D6) of over 50 µM. The IC50 (Cytochrome P450 2C19) was over 50 µM, the IC50 (Cytochrome P450 1A2) was 6.9 µM and the IC50 [34] was 0.0034 µM. It also gave an IC50 [35] of 0.215 µM, an IC50 [36] of 0.042 µM and an IC50 [37] of 0.118 µM. The concentration at 1 h [38] was 141 µM, the concentration at 4 h [39] was 81 µM and the IC50 [40] was 0.14 µM. It also gave an IC50 (Caco-2 [41]) of 2.69 µM and an IC50 (Caco-2 [42]) of 2.14 µM.
